Earlier results in patent US20230080958A1, “METHODS OF TREATING PSEUDOBULBAR AFFECT AND OTHER EMOTIONAL DISTURBANCES” (Woolsey Pharmaceuticals, Inc., priority 2020, published 2023).

Key:
[1] = 1-hydroxy (M3) metabolite, in vivo (Shibuya 2001)
[2] = tested on: patients with sub-cortical vascular dementia

| half-life [1] | SMILES | emotional incontinence (compulsive laughing and/or crying) ([2]; Kamei publication and Japanese patent application 6-293643, three patients, no assessment or diagnosis of PBA) | wandering (primary outcome) ([2]; two patients with sub-cortical vascular dementia, open-label, no control group, concomitant medications (Kamei 1996)) |
| --- | --- | --- | --- |
| about 8 hours | O=S(=O)(c1cccc2c(O)nccc12)N1CCCNCC1 [M3] | – | – |
| – | O=S(=O)(c1cccc2cnccc12)N1CCCNCC1 [fasudil, hexahydro-1-(5-isoquinolinesulfonyl)-1H-1,4-diazepine] | improvements | mitigated wandering |
